Results: patent US20230135524A1, “ARYL HYDANTOIN HETEROCYCLES AND METHODS OF USE” (The United States of America,as represented by the …, priority 2020, published 2023)

How the values were obtained:
[1] = biological target: T1, Androgen Receptor (UniProt P10275); test: Radioligand competition binding, [3H] methyltrienolone; conditions: competition with 0.5 nM [3H] methyltrienolone
T1 sequence (P10275 1-920): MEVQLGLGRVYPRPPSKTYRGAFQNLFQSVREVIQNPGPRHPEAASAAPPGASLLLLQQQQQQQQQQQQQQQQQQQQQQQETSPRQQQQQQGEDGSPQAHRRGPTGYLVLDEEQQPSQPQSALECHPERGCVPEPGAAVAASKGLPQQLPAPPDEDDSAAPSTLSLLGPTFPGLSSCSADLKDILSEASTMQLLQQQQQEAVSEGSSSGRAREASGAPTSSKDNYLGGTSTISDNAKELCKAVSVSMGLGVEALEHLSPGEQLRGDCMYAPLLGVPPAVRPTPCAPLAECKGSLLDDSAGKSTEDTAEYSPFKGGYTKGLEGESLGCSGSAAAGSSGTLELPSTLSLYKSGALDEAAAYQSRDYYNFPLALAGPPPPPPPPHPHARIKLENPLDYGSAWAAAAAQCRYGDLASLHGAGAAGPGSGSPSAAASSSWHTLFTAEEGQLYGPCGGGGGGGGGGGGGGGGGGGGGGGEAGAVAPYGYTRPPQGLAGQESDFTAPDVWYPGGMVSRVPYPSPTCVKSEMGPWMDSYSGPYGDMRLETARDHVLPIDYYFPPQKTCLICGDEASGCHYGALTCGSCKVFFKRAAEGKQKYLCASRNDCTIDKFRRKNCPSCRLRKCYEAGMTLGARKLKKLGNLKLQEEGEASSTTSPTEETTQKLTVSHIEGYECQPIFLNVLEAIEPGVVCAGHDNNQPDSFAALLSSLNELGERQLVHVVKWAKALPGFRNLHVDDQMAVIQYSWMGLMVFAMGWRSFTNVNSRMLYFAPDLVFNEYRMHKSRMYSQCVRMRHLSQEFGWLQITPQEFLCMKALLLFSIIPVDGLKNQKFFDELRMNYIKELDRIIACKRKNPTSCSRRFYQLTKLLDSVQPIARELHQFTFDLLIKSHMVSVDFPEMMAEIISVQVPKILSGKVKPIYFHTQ
Method: (§1) Binding assays were performed via competition with radioactive ligands across a range of dose of compounds 15a and 19d. For aldosterone binding, the aldosterone receptor was incubated for 20 hours with […] aldosterone. Similarly, the androgen receptor was co-incubated with 0.5 nM of [^3H] methyltrienolone, the estrogen receptor alpha was co-incubated with 0.5 nM [^3H] estradiol, the glucocorticoid receptor with 0.5 nM [^3H] dexamethasone, and the progesterone receptor with 0.5 nM [^3H] progesterone as parent ligands.

[2] = test system: LNCaP ARin vivo; test: IncuCyte % confluence cell growth inhibition, LNCaP ARin vivo; format: cell-based; conditions: Homo sapiens, read-out: IC50 values (μM), LNCaP ARin vivo
Method: (§2) Images were then analyzed to discern the % confluence of cells in each well. IC50 values were calculated from dose response curves of the % cell growth inhibition relative to DMSO control at the same time point per each cell line.

[3] = test system: LNCAP AR; test: IncuCyte % confluence cell growth inhibition, LNCAP AR; format: cell-based; conditions: read-out: IC50 values (μM), LNCAP AR
Method: as §2

[4] = biological target: T2, Glucocorticoid Receptor (Homo sapiens, UniProt P04150); test: Radioligand competition binding, [3H] dexamethasone; conditions: competition with 0.5 nM [3H] dexamethasone
T2 sequence (P04150 1-777): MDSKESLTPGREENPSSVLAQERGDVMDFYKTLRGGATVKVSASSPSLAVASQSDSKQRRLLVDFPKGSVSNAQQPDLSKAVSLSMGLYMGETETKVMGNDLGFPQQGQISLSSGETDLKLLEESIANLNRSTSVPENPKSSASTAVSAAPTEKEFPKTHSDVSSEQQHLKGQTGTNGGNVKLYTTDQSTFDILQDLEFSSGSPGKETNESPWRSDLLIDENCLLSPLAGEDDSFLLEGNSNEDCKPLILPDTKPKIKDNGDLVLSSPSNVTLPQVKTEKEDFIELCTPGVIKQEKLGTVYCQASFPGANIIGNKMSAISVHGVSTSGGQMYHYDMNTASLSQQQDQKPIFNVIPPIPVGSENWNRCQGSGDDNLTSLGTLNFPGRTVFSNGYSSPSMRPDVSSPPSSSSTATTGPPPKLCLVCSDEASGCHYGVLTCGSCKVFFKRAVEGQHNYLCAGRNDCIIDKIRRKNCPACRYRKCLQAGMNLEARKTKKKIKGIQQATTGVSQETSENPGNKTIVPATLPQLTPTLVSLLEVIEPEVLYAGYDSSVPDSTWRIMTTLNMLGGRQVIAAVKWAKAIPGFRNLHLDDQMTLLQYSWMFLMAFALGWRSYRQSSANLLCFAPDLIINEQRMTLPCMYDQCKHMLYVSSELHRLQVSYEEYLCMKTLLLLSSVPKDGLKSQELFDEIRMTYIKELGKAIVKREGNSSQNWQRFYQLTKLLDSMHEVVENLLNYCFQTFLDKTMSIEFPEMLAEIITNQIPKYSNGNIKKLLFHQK
Method: as §1

[5] = biological target: T3, AR (Homo sapiens, UniProt P10275); test: AR transcriptional output, ARE-luciferase assay in HEK 293T cells; format: cell-based
T3 construct: host or cells: HEK 293T
T3 sequence (P10275 1-920): T1 sequence (P10275 1-920)
Method: 100% is set to the activity with 200 μM testosterone, and 0% is set to the basal level (no ligand).
Cells were maintained in steroid free media, and stimulated with 200 μM testosterone, followed immediately by administration of exemplary compounds (Table 1, below). RLU is relative luciferase units, relative to DMSO control with 200 μM testosterone alone. Data represent an average of 3 independent experiments performed in triplicate wells per compounds at 10 μM.
Cells were maintained in steroid-free media, and stimulated with 200 μM testosterone, followed immediately by administration of a test compound. […] Compounds were dosed at 10 μM in FIGS. 6A and 6B.
Cells were maintained in steroid-free media, and stimulated with 200 μM testosterone, followed immediately by administration of a test compound.

[6] = Pharmacokinetics in non-tumor bearing BALB/C mice, IV and PO; format: in vivo; conditions: for Cmax—D: dose-normalised; for Tmax / half-life: mouse, plasma
Method: FIG. 14A-B are graphs of time (hours) versus plasma concentration (ng/mL) for intravenous (IV) (FIG. 14A) and oral (PO) (FIG. 14B) administration of 15a and 15n over 12 hours. Error bars represent the standard deviation in ng/mL from three independent mice per time point.
Clearance, Cmax, half life, dose/AUC, and bioavailability were calculated by statistical analysis using PHOENIX™ WINNONLIN™ v7.0 (Certara, Princeton, N.J.). The results are shown in FIGS. 14A and 14B and Table 4.

SMILES | IC50 [1] [nM] | IC50 [2] [µM] | IC50 [3] [µM] | IC50 [4] [nM] | antagonist or inverse agonist activity on AR transcriptional activity (in words) ([5]; 10 μM, HEK 293T, FIG. 6A) | activity at 10 µM ([5]; HEK-293T, read-out: AR antagonist activity (% RLU)) [%] | Cmax—D ([6]; IV, 1 mg/kg) [kg·ng/mL/mg] | Cmax—D ([6]; PO, 20 mg/kg) [kg·ng/mL/mg] | Tmax ([6]; IV, 1 mg/kg) [h] | half-life ([6]; IV, 1 mg/kg) [h] | Tmax ([6]; PO, 20 mg/kg) [h] | half-life ([6]; PO, 20 mg/kg) [h]
CC1(C)C(=O)N(c2ccc(C#N)c(C(F)(F)F)c2)C(=S)N1Cc1ccc(-c2c[nH]nn2)cc1F [Compound 19d, 4-(3-(2-Fluoro-4-(1H-1,2,3-triazol-4-yl)benzyl)-4,4-dimethyl-5-oxo-2-thioxoimidazolidin-1-yl)-2-(trifluoromethyl)benzonitrile] | 9.3 | 28.2 | 28.2 | > 10000 |  |  |  |  |  |  |  | 
CC1(C)C(=O)N(c2ccc(C#N)c(C(F)(F)F)c2)C(=S)N1Cc1ccc(-c2c[nH]nn2)cc1 [Compound 15a, 4-(3-(4-(1H-1,2,3-triazol-4-yl)benzyl)-4,4-dimethyl-5-oxo-2-thioxoimidazolidin-1-yl)-2-(trifluoromethyl)benzonitrile] | 12.5 | 18.5 | 17 | > 10000 | reduced the transcriptional activity of the AR well below the expression in the absence of any steroids or ligands | -109 | 453 | 412 | 2 | 18 | 2 | 20.6
